Laboratory results taken from patent US12077503B2, “Substituted cyclic amides and their use as herbicides” (FMC CORPORATION, priority 2015, dated 2024).

How the values were obtained:
Type in all cases: in vivo
[1] = system: barnyardgrass (Echinochloa crus-galli); assay: Test G Pre-Emergence Protocol; conditions: evaluated after 13 days
Procedure: (§1) Seeds of corn (Zea mays), giant foxtail (Setaria faberi), barnyardgrass (Echinochloa crus-galli), ivy-leaved morning glory (Ipomoea hederacea), redroot pigweed (Amaranthus retroflexus) and velvetleaf (Abutilon theophrasti) were sown in standard soil in pots. After cultivation for one day under controlled conditions in a glasshouse (at 24/16° C., day/night; 14 hours light; 65% humidity), the plants were sprayed with an aqueous spray solution derived from the formulation of the technical active ingredient in acetone/water (50:50) solution containing 0.5% Tween 20 (polyoxyethylene sorbitan monolaurate, CAS RN 9005-64-5) to give a final dose of 15.625, 62.5 or 250 g/ha of test compound.
(§2) The test plants were then grown on under controlled conditions in a glasshouse (at 24/16° C., day/night; 14 hours light; 65% humidity) and watered twice daily. After 13 days the test was evaluated (100=total damage to plant; 0=no damage to plant). A dash (-) means no test result.

[2] = system: corn (Zea mays); assay: Test G Pre-Emergence Protocol; conditions: evaluated after 13 days
Procedure: as §1, §2

[3] = system: giant foxtail (Setaria faberi); assay: Test G Pre-Emergence Protocol; conditions: evaluated after 13 days
Procedure: as §1, §2

[4] = system: ivy-leaved morning glory (Ipomoea hederacea); assay: Test G Pre-Emergence Protocol; conditions: evaluated after 13 days
Procedure: as §1, §2

[5] = system: redroot pigweed (Amaranthus retroflexus); assay: Test G Pre-Emergence Protocol; conditions: evaluated after 13 days
Procedure: as §1, §2

[6] = system: velvetleaf (Abutilon theophrasti); assay: Test G Pre-Emergence Protocol; conditions: evaluated after 13 days
Procedure: as §1, §2

[7] = system: barnyardgrass (Echinochloa crus-galli); assay: Test G Post-Emergence Protocol
Procedure: as §1, with “8 days” for “one day”
as §2

[8] = system: corn (Zea mays); assay: Test G Post-Emergence Protocol
Procedure: as §1, with “8 days” for “one day”
as §2

[9] = system: giant foxtail (Setaria faberi); assay: Test G Post-Emergence Protocol
Procedure: as §1, with “8 days” for “one day”
as §2

[10] = system: ivy-leaved morning glory (Ipomoea hederacea); assay: Test G Post-Emergence Protocol
Procedure: as §1, with “8 days” for “one day”
as §2

[11] = system: redroot pigweed (Amaranthus retroflexus); assay: Test G Post-Emergence Protocol
Procedure: as §1, with “8 days” for “one day”
as §2

[12] = system: velvetleaf (Abutilon theophrasti); assay: Test G Post-Emergence Protocol
Procedure: as §1, with “8 days” for “one day”
as §2

[13] = 62.5 g ai/ha, 100=total damage to plant, 0=no damage to plant
[14] = 15.625 g ai/ha, evaluated after 13 days (100=total damage to plant; 0=no damage to plant)
[15] = 62.5 g ai/ha, evaluated after 13 days
[16] = 250 g ai/ha, evaluated after 13 days

## Cc1nc(Cl)ccc1[C@@H]1CN(C)C(=O)[C@H]1C(=O)Nc1cccc(F)c1F [Compound 1463]
[1]; 15.625 g ai/ha
  Barnyardgrass damage rating (100=total damage to plant; 0=no damage to plant): 10
[1]; [13]
  plant damage rating, Barnyardgrass: 50
[1]; 250 g ai/ha
  Barnyardgrass damage rating (100=total damage to plant; 0=no damage to plant): 90
[2]; 15.625 g ai/ha
  Corn damage rating (100=total damage to plant; 0=no damage to plant): 0
[2]; [13]
  plant damage rating, Corn: 0
[2]; 250 g ai/ha
  Corn damage rating (100=total damage to plant; 0=no damage to plant): 0
[3]; 15.625 g ai/ha
  Foxtail, Giant damage rating (100=total damage to plant; 0=no damage to plant): 0
[3]; [13]
  plant damage rating, Foxtail, Giant: 70
[3]; 250 g ai/ha
  Foxtail, Giant damage rating (100=total damage to plant; 0=no damage to plant): 90
[4]; 15.625 g ai/ha
  Morning-glory, Ivy-leaved damage rating (100=total damage to plant; 0=no damage to plant): 0
[4]; [13]
  plant damage rating, Morningglory, Ivy-leaved: 0
[4]; 250 g ai/ha
  Morningglory, Ivy-leaved damage rating (100=total damage to plant; 0=no damage to plant): 0
[5]; 15.625 g ai/ha
  Pigweed, Redroot damage rating (100=total damage to plant; 0=no damage to plant): 0
[5]; [13]
  plant damage rating, Pigweed, Redroot: 0
[5]; 250 g ai/ha
  Pigweed, Redroot damage rating (100=total damage to plant; 0=no damage to plant): 0
[6]; 15.625 g ai/ha
  Velvetleaf damage rating (100=total damage to plant; 0=no damage to plant): 0
[6]; [13]
  plant damage rating, Velvetleaf: 0
[6]; 250 g ai/ha
  Velvetleaf damage rating (100=total damage to plant; 0=no damage to plant): 0
[7]; [14]
  Barnyardgrass damage rating: 0
[7]; [15]
  Barnyardgrass damage rating (100=total damage to plant; 0=no damage to plant): 0
[7]; [16]
  damage to plant, Barnyardgrass (100=total damage to plant; 0=no damage to plant): 30
[8]; [14]
  Corn damage rating: 0
[8]; [15]
  Corn damage rating (100=total damage to plant; 0=no damage to plant): 10
[8]; [16]
  damage to plant, Corn (100=total damage to plant; 0=no damage to plant): 10
[9]; [14]
  Foxtail, Giant damage rating: 0
[9]; [15]
  Foxtail, Giant damage rating (100=total damage to plant; 0=no damage to plant): 0
[9]; [16]
  damage to plant, Foxtail, Giant (100=total damage to plant; 0=no damage to plant): 70
[10]; [14]
  Morningglory, Ivy-leaved damage rating: 0
[10]; [15]
  Morningglory, Ivy-leaved damage rating (100=total damage to plant; 0=no damage to plant): 0
[10]; [16]
  damage to plant, Morningglory, Ivy-leaved (100=total damage to plant; 0=no damage to plant): 20
[11]; [14]
  Pigweed, Redroot damage rating: 0
[11]; [15]
  Pigweed, Redroot damage rating (100=total damage to plant; 0=no damage to plant): 10
[11]; [16]
  damage to plant, Pigweed, Redroot (100=total damage to plant; 0=no damage to plant): 10
[12]; [14]
  Velvetleaf damage rating: 0
[12]; [15]
  Velvetleaf damage rating (100=total damage to plant; 0=no damage to plant): 10
[12]; [16]
  damage to plant, Velvetleaf (100=total damage to plant; 0=no damage to plant): 20

## CCOc1cc(F)cc(C2CN(C)C(=O)C2C(=O)Nc2cccc(F)c2F)c1 (centres unmarked) [Compound 1695]
[1]; Echinochloa crus-galli, pre-emergence, 312 h, 15.625 g ai/ha, read-out: Barnyardgrass damage rating (100=total damage to plant; 0=no damage to plant)
  pest or weed control at 15.625 g/ha: 50%
[1]; Echinochloa crus-galli, pre-emergence, 312 h, 62.5 g ai/ha, 100=total damage to plant, 0=no damage to plant, read-out: Barnyardgrass damage rating
  pest or weed control at 62.5 g/ha: 90%
[2]; Zea mays, pre-emergence, 312 h, 15.625 g ai/ha, read-out: Corn damage rating (100=total damage to plant; 0=no damage to plant)
  plant injury at 15.625 g/ha: 10%
[2]; Zea mays, pre-emergence, 312 h, 62.5 g ai/ha, 100=total damage to plant, 0=no damage to plant, read-out: Corn damage rating
  plant injury at 62.5 g/ha: 40%
[3]; Setaria faberi, pre-emergence, 312 h, 15.625 g ai/ha, read-out: Foxtail, Giant damage rating (100=total damage to plant; 0=no damage to plant)
  pest or weed control at 15.625 g/ha: 70%
[3]; Setaria faberi, pre-emergence, 312 h, 62.5 g ai/ha, 100=total damage to plant, 0=no damage to plant, read-out: Foxtail, Giant damage rating
  pest or weed control at 62.5 g/ha: 90%
[4]; Ipomoea, pre-emergence, 312 h, 15.625 g ai/ha, read-out: Morningglory, Ivy-leaved damage rating (100=total damage to plant; 0=no damage to plant)
  pest or weed control at 15.625 g/ha: 0%
[5]; Amaranthus retroflexus, pre-emergence, 312 h, 15.625 g ai/ha, read-out: Pigweed, Redroot damage rating (100=total damage to plant; 0=no damage to plant)
  pest or weed control at 15.625 g/ha: 0%
[5]; Amaranthus retroflexus, pre-emergence, 312 h, 62.5 g ai/ha, 100=total damage to plant, 0=no damage to plant, read-out: Pigweed, Redroot damage rating
  pest or weed control at 62.5 g/ha: 0%
[6]; Abutilon theophrasti, pre-emergence, 312 h, 15.625 g ai/ha, read-out: Velvetleaf damage rating (100=total damage to plant; 0=no damage to plant)
  pest or weed control at 15.625 g/ha: 0%
[6]; Abutilon theophrasti, pre-emergence, 312 h, 62.5 g ai/ha, 100=total damage to plant, 0=no damage to plant, read-out: Velvetleaf damage rating
  pest or weed control at 62.5 g/ha: 0%
[7]; Echinochloa crus-galli, post-emergence, 312 h, 15.625 g ai/ha, evaluated after 13 days (100=total damage to plant; 0=no damage to plant), read-out: Barnyardgrass damage rating
  pest or weed control at 15.625 g/ha: 80%
[7]; Echinochloa crus-galli, post-emergence, 312 h, 62.5 g ai/ha, evaluated after 13 days, 100=total damage to plant, 0=no damage to plant, read-out: Barnyardgrass damage rating
  pest or weed control at 62.5 g/ha: 80%
[8]; Zea mays, post-emergence, 312 h, 15.625 g ai/ha, evaluated after 13 days (100=total damage to plant; 0=no damage to plant), read-out: Corn damage rating
  plant injury at 15.625 g/ha: 30%
[8]; Zea mays, post-emergence, 312 h, 62.5 g ai/ha, evaluated after 13 days, 100=total damage to plant, 0=no damage to plant, read-out: Corn damage rating
  plant injury at 62.5 g/ha: 70%
[9]; Setaria faberi, post-emergence, 312 h, 15.625 g ai/ha, evaluated after 13 days (100=total damage to plant; 0=no damage to plant), read-out: Foxtail, Giant damage rating
  pest or weed control at 15.625 g/ha: 80%
[9]; Setaria faberi, post-emergence, 312 h, 62.5 g ai/ha, evaluated after 13 days, 100=total damage to plant, 0=no damage to plant, read-out: Foxtail, Giant damage rating
  pest or weed control at 62.5 g/ha: 80%
[10]; Ipomoea, post-emergence, 312 h, 15.625 g ai/ha, evaluated after 13 days (100=total damage to plant; 0=no damage to plant), read-out: Morningglory, Ivy-leaved damage rating
  pest or weed control at 15.625 g/ha: 10%
[10]; Ipomoea, post-emergence, 312 h, 62.5 g ai/ha, evaluated after 13 days, 100=total damage to plant, 0=no damage to plant, read-out: Morningglory, Ivy-leaved damage rating
  pest or weed control at 62.5 g/ha: 20%
[11]; Amaranthus retroflexus, post-emergence, 312 h, 15.625 g ai/ha, evaluated after 13 days (100=total damage to plant; 0=no damage to plant), read-out: Pigweed, Redroot damage rating
  pest or weed control at 15.625 g/ha: 10%
[11]; Amaranthus retroflexus, post-emergence, 312 h, 62.5 g ai/ha, evaluated after 13 days, 100=total damage to plant, 0=no damage to plant, read-out: Pigweed, Redroot damage rating
  pest or weed control at 62.5 g/ha: 10%
[12]; Abutilon theophrasti, post-emergence, 312 h, 15.625 g ai/ha, evaluated after 13 days (100=total damage to plant; 0=no damage to plant), read-out: Velvetleaf damage rating
  pest or weed control at 15.625 g/ha: 0%
[12]; Abutilon theophrasti, post-emergence, 312 h, 62.5 g ai/ha, evaluated after 13 days, 100=total damage to plant, 0=no damage to plant, read-out: Velvetleaf damage rating
  pest or weed control at 62.5 g/ha: 10%
